Results published in US5593964A, “Method of treating septic shock by preventing actin polymerization” (The George Washington University Medical Center, priority 1994, dated 1997).

Experiments:
PAF = PAF blood levels (plasma, serum) after lethal endotoxin dose; format: in vivo, Swiss-Webster mice; conditions: after a lethal dose of endotoxin
From the text: (§1) Using the same methods and materials as in examples 1-3, the effect which Tβ4 has on blood levels of IL-1α, TNF-α, PAG, Txβ2 and 6-keto-PGF1 α, which are pathological mediators of endotoxin induced lethality, was studied.

IL-1α = IL-1α serum levels after lethal endotoxin dose; format: in vivo, Swiss-Webster mice
From the text: as §1

Txβ2 = Txβ2 plasma levels after lethal endotoxin dose; format: in vivo, Swiss-Webster mice
From the text: as §1

lethal endotoxin shock = assay: Survival of Swiss Webster mice following lethal endotoxin dose and Tβ4; format: in vivo
Protocol: Swiss-Webster mice 4-6 weeks of age (20-25g) were housed 6 per cage. The mice were divided into 2 groups: endotoxic mice (endotoxin 60 mg/kg i.p. in acute treatment) and endotoxic mice treated with Tβ4, 5 minutes and 2, 4, 6, 8, 10, 12, 14, 16, 18, 20, 22, 24 hours post administration of the endotoxin. Survival was recorded 2 times a day for 7 days.
Swiss-Webster mice 4-6 weeks of age (20-25g) were divided to the following 4 groups.
1. Mice treated with a lethal dose of endotoxin (60 mg/kg).
2. Mice treated with 60 mg/kg endotoxin followed by an injection of 100 μg Tβ4 (5 minutes post administration of endotoxin).
3. Mice treated with 60 mg/kg endotoxin followed by 2 injections of 100 μg/Tβ4 (immediately following and 2 hours post administration of endotoxin).
4. […]

TNF-α = TNF-α serum levels after lethal endotoxin dose; format: in vivo, Swiss-Webster mice
From the text: as §1

6-keto-PGF1α = 6-keto-PGF1α plasma levels after lethal endotoxin dose; format: in vivo, Swiss-Webster mice; conditions: after a lethal dose of endotoxin
From the text: as §1

[1] = after a lethal dose of endotoxin
[2] = endotoxin 60 mg/kg + Tβ4 100 μg administered simultaneously, 1 hr
[3] = endotoxin 60 mg/kg + Tβ4 100 μg administered simultaneously, 3 hr

Thymosin β4 [Tβ4]
PAF plasma levels (PAF): decreased | IL-1α (serum levels) (IL-1α; [1]): decreased | IL-1α (serum levels) (IL-1α; [2]): 147,5 ± 15,1 pg/ml | IL-1α (serum levels) (IL-1α; [3]): 207,5 ± 19,3 pg/ml | Txβ2 (plasma levels) (Txβ2; [1]): decreased | Txβ2 (plasma levels) (Txβ2; endotoxin 60 mg/kg + Tβ4 100 μg administered simultaneously, 0.5 hr): 209 ± 9,5 pg/ml | Txβ2 (plasma levels) (Txβ2; [2]): 607 ± 53 pg/mL | Txβ2 (plasma levels) (Txβ2; endotoxin 60 mg/kg + Tβ4 100 μg administered simultaneously, 2 hr): 196 ± 18 pg/mL | Txβ2 (plasma levels) (Txβ2; [3]): 112 ± 9 pg/mL | activity on endotoxin lethality (lethal endotoxin shock; 10 μg Tβ4): sometimes shown positive activity | protection against lethal endotoxin shock (lethal endotoxin shock; Example 1, endotoxin 60 mg/kg i.p.): protected against lethal endotoxin shock | survival rate (lethal endotoxin shock; Example 1, endotoxin 60 mg/kg i.p., Tβ4 5 minutes and 2 to 24 hours post endotoxin, survival recorded for 7 days): ≤ 100% | survival rate (lethal endotoxin shock; Example 2, endotoxin 60 mg/kg, Tβ4 administered 3 times post endotoxin): 100% | Survival (No. mice alive) (lethal endotoxin shock; Table I, endotoxin 60 mg/kg + Tβ4 100 μg 1x (5 min post endotoxin), 24 hrs, 7 mice at 0 hrs): 4 | Survival (No. mice alive) (lethal endotoxin shock; Table I, endotoxin 60 mg/kg + Tβ4 100 μg 2x (immediately and 2 hours post endotoxin), 24 hrs, 7 mice at 0 hrs): 4 | Survival (No. mice alive) (lethal endotoxin shock; Table I, endotoxin 60 mg/kg + Tβ4 100 μg 3x (immediately, 2 and 4 hours post endotoxin), 24 hrs, 7 mice at 0 hrs): 7 | Survival (No. mice alive) (lethal endotoxin shock; Table II, Tβ4 10 μg 3x immediately following, 2 and 4 hrs after endotoxin, 48 hrs, 8 mice at 0 hrs): 6 | Survival (No. mice alive) (lethal endotoxin shock; Table II, Tβ4 10 μg 3x immediately following, 2 and 4 hrs after endotoxin, 72 hrs, 8 mice at 0 hrs): 6 | Survival (No. mice alive) (lethal endotoxin shock; Table II, Tβ4 10 μg 3x immediately following, 2 and 4 hrs after endotoxin, 96 hrs, 8 mice at 0 hrs): 6 | Survival (No. mice alive) (lethal endotoxin shock; Table II, Tβ4 10 μg 3x immediately following, 2 and 4 hrs after endotoxin, 120 hrs, 8 mice at 0 hrs): 6 | Survival (No. mice alive) (lethal endotoxin shock; Table II, Tβ4 100 μg 3x at 2, 4 and 6 hrs after endotoxin, 48 hrs, 8 mice at 0 hrs): 4 | Survival (No. mice alive) (lethal endotoxin shock; Table II, Tβ4 100 μg 3x at 2, 4 and 6 hrs after endotoxin, 72 hrs, 8 mice at 0 hrs): 4 | Survival (No. mice alive) (lethal endotoxin shock; Table II, Tβ4 100 μg 3x at 2, 4 and 6 hrs after endotoxin, 96 hrs, 8 mice at 0 hrs): 4 | Survival (No. mice alive) (lethal endotoxin shock; Table II, Tβ4 100 μg 3x at 2, 4 and 6 hrs after endotoxin, 120 hrs, 8 mice at 0 hrs): 4 | Survival (No. mice alive) (lethal endotoxin shock; Table II, Tβ4 100 μg 3x immediately following, 2 and 4 hrs after endotoxin, 48 hrs, 8 mice at 0 hrs): 8 | Survival (No. mice alive) (lethal endotoxin shock; Table II, Tβ4 100 μg 3x immediately following, 2 and 4 hrs after endotoxin, 72 hrs, 8 mice at 0 hrs): 8 | Survival (No. mice alive) (lethal endotoxin shock; Table II, Tβ4 100 μg 3x immediately following, 2 and 4 hrs after endotoxin, 96 hrs, 8 mice at 0 hrs): 8 | Survival (No. mice alive) (lethal endotoxin shock; Table II, Tβ4 100 μg 3x immediately following, 2 and 4 hrs after endotoxin, 120 hrs, 8 mice at 0 hrs): 8 | Survival (No. mice alive) (lethal endotoxin shock; Table II, endotoxin 60 mg/kg + Tβ4 10 μg 3x immediately following, 2 and 4 hrs after endotoxin, 24 hrs, 8 mice at 0 hrs): 8 | Survival (No. mice alive) (lethal endotoxin shock; Table II, endotoxin 60 mg/kg + Tβ4 100 μg 3x at 2, 4 and 6 hrs after endotoxin, 24 hrs, 8 mice at 0 hrs): 7 | Survival (No. mice alive) (lethal endotoxin shock; Table II, endotoxin 60 mg/kg + Tβ4 100 μg 3x immediately following, 2 and 4 hrs after endotoxin, 24 hrs, 8 mice at 0 hrs): 8 | Survival (No. mice alive) (lethal endotoxin shock; Table III, Tβ4 10 μg 3x i.p., 48 hrs, 10 mice at 0 hrs): 3 | Survival (No. mice alive) (lethal endotoxin shock; Table III, Tβ4 10 μg 3x i.p., 72 hrs, 10 mice at 0 hrs): 3 | Survival (No. mice alive) (lethal endotoxin shock; Table III, Tβ4 10 μg 3x i.p., 96 hrs, 10 mice at 0 hrs): 3 | Survival (No. mice alive) (lethal endotoxin shock; Table III, Tβ4 10 μg 3x i.p., 5 days, 10 mice at 0 hrs): 3 | Survival (No. mice alive) (lethal endotoxin shock; Table III, Tβ4 10 μg 3x i.p., 6 days, 10 mice at 0 hrs): 3 | Survival (No. mice alive) (lethal endotoxin shock; Table III, Tβ4 20 μg 3x i.p., 48 hrs, 10 mice at 0 hrs): 4 | Survival (No. mice alive) (lethal endotoxin shock; Table III, Tβ4 20 μg 3x i.p., 72 hrs, 10 mice at 0 hrs): 4 | Survival (No. mice alive) (lethal endotoxin shock; Table III, Tβ4 20 μg 3x i.p., 96 hrs, 10 mice at 0 hrs): 3 | Survival (No. mice alive) (lethal endotoxin shock; Table III, Tβ4 20 μg 3x i.p., 5 days, 10 mice at 0 hrs): 3 | Survival (No. mice alive) (lethal endotoxin shock; Table III, Tβ4 20 μg 3x i.p., 6 days, 10 mice at 0 hrs): 3 | Survival (No. mice alive) (lethal endotoxin shock; Table III, Tβ4 50 μg 3x i.p., 48 hrs, 10 mice at 0 hrs): 7 | Survival (No. mice alive) (lethal endotoxin shock; Table III, Tβ4 50 μg 3x i.p., 72 hrs, 10 mice at 0 hrs): 7 | Survival (No. mice alive) (lethal endotoxin shock; Table III, Tβ4 50 μg 3x i.p., 96 hrs, 10 mice at 0 hrs): 7 | Survival (No. mice alive) (lethal endotoxin shock; Table III, Tβ4 50 μg 3x i.p., 5 days, 10 mice at 0 hrs): 7 | Survival (No. mice alive) (lethal endotoxin shock; Table III, Tβ4 50 μg 3x i.p., 6 days, 10 mice at 0 hrs): 7 | Survival (No. mice alive) (lethal endotoxin shock; Table III, endotoxin 60 mg/kg + Tβ4 10 μg 3x i.p. immediately following, 2 and 4 hrs after endotoxin, 24 hrs, 10 mice at 0 hrs): 3 | Survival (No. mice alive) (lethal endotoxin shock; Table III, endotoxin 60 mg/kg + Tβ4 20 μg 3x i.p. immediately following, 2 and 4 hrs after endotoxin, 24 hrs, 10 mice at 0 hrs): 5 | Survival (No. mice alive) (lethal endotoxin shock; Table III, endotoxin 60 mg/kg + Tβ4 50 μg 3x i.p. immediately following, 2 and 4 hrs after endotoxin, 24 hrs, 10 mice at 0 hrs): 9 | survival of mice treated with endotoxin (lethal endotoxin shock; Tβ4 20 μg administered three times): partially increased the survival | survival of mice treated with endotoxin (lethal endotoxin shock; Tβ4 50 μg administered three times): partially increased the survival | effect on endotoxin toxicity (lethal endotoxin shock; Tβ4 given immediately following, 2 and 4 hours after endotoxin treatment): protective effect | TNF-α (serum levels) (TNF-α; [1]): decreased | TNF-α (serum levels) (TNF-α; endotoxin 60 mg/kg + Tβ4 100 μg administered immediately after endotoxin, 1 hr): 807 pg/mL | TNF-α (serum levels) (TNF-α; endotoxin 60 mg/kg + Tβ4 100 μg administered immediately after endotoxin, 3 hr): 591 pg/mL | TNF-α (serum levels) (TNF-α; endotoxin 60 mg/kg + Tβ4 100 μg administered immediately after endotoxin, 5 hr): 496 pg/mL | 6-keto-PGF1 α plasma levels (6-keto-PGF1α): decreased
